Source: ChEMBL document CHEMBL6071129, “Strategies that regulate Hippo signaling pathway for novel anticancer therapeutics” (Eur J Med Chem, 2024)
One block for each compound: values may come before it.

Experiments:
HT-29 = assay: Antiproliferative activity against human HT-29 cells incubated for 48 hrs by MTT assay; format: functional, cell-based; conditions: HT-29, 48 h
[1] = Antiproliferative activity against human HCA46 cells incubated for 48 hrs by MTT assay; format: functional, cell-based; conditions: HCA46, 48 h
HCT-116 = assay: Antiproliferative activity against human HCT-116 cells incubated for 48 hrs by MTT assay; format: functional, cell-based; conditions: HCT-116, 48 h
[2] = Antiproliferative activity against human A2780/CP70 cells incubated for 48 hrs by MTT assay; format: functional, cell-based; conditions: A2780/CP70, 48 h
A2780 = assay: Antiproliferative activity against human A2780 cells incubated for 48 hrs by MTT assay; format: functional, cell-based; conditions: A2780, 48 h
[3] = Antiproliferative activity against CMT47 cells incubated for 48 hrs; format: functional; conditions: Canis lupus familiaris, read-out: ED50 (the source's name)
[4] = Antiproliferative activity against human HBC4 cells incubated for 96 hrs by MTT assay; format: functional, cell-based; conditions: HBC4, 96 h
[5] = Antiproliferative activity against human HBC5 cells incubated for 96 hrs by MTT assay; format: functional, cell-based; conditions: HBC5, 96 h
[6] = Antiproliferative activity against CMT9 cells incubated for 48 hrs; format: functional; conditions: Canis lupus familiaris, read-out: ED50 (the source's name)
MDA-MB-231 = assay: Antiproliferative activity against human MDA-MB-231 cells incubated for 96 hrs by MTT assay; format: functional, cell-based; conditions: MDA-MB-231, 96 h
[7] = Inhibition of TEAD (unknown origin) to YAP (unknown origin) protein-protein interaction expressed in HEK293T cells transfected with 8XGTIIC-Luciferase and CMV-betagalactosidase incubated for 24 hrs by luciferase reporter assay; format: cell-based, Homo sapiens
[8] = Inhibition of TEAD (unknown origin) by YAP reporter assay; parameters: species or system Homo sapiens
NCI-H2052 = assay: Antiproliferative activity against human NCI-H2052 cells; format: functional, cell-based
[9] = Inhibition of His-tagged TEAD3 (unknown origin) to TAZ (unknown origin) protein-protein interaction preincubated for 30 mins followed by biotinylated YAP addition and measured after 60 mins by TR-FRET assay; parameters: species or system Homo sapiens
[10] = Inhibition of His-tagged TEAD1 (unknown origin) to TAZ (unknown origin) protein-protein interaction preincubated for 30 mins followed by biotinylated YAP addition and measured after 60 mins by TR-FRET assay; parameters: species or system Homo sapiens
[11] = Inhibition of His-tagged TEAD2 (unknown origin) to YAP (unknown origin) protein-protein interaction preincubated for 30 mins followed by biotinylated YAP addition and measured after 60 mins by TR-FRET assay; parameters: species or system Homo sapiens
[12] = Inhibition of His-tagged TEAD1 (unknown origin) to YAP (unknown origin) protein-protein interaction preincubated for 30 mins followed by biotinylated YAP addition and measured after 60 mins by TR-FRET assay; parameters: species or system Homo sapiens
[13] = Inhibition of His-tagged TEAD4 (unknown origin) to TAZ (unknown origin) protein-protein interaction preincubated for 30 mins followed by biotinylated YAP addition and measured after 60 mins by TR-FRET assay; parameters: species or system Homo sapiens
[14] = tested on: Transcriptional enhancer factor TEF-1-Lipid; assay: Inhibition of His-tagged TEAD1 (unknown origin) to lipid (unknown origin) interaction preincubated for 30 mins followed by biotinylated lipid addition and measured after 60 mins by TR-FRET assay; parameters: species or system Homo sapiens
[15] = tested on: Transcriptional enhancer factor TEF-5-Lipid; assay: Inhibition of His-tagged TEAD3 (unknown origin) to lipid (unknown origin) interaction preincubated for 30 mins followed by biotinylated lipid addition and measured after 60 mins by TR-FRET assay; parameters: species or system Homo sapiens
[16] = Inhibition of His-tagged TEAD4 (unknown origin) to YAP (unknown origin) protein-protein interaction preincubated for 30 mins followed by biotinylated YAP addition and measured after 60 mins by TR-FRET assay; parameters: species or system Homo sapiens
[17] = Inhibition of His-tagged TEAD3 (unknown origin) to YAP (unknown origin) protein-protein interaction preincubated for 30 mins followed by biotinylated YAP addition and measured after 60 mins by TR-FRET assay; parameters: species or system Homo sapiens
[18] = tested on: Transcriptional enhancer factor TEF-3-Lipid; assay: Inhibition of His-tagged TEAD4 (unknown origin) to lipid (unknown origin) interaction preincubated for 30 mins followed by biotinylated lipid addition and measured after 60 mins by TR-FRET assay; parameters: species or system Homo sapiens
[19] = tested on: Transcriptional enhancer factor TEF-4-Lipid; assay: Inhibition of His-tagged TEAD2 (unknown origin) to lipid (unknown origin) interaction preincubated for 30 mins followed by biotinylated lipid addition and measured after 60 mins by TR-FRET assay; parameters: species or system Homo sapiens
[20] = Inhibition of His-tagged TEAD2 (unknown origin) to TAZ (unknown origin) protein-protein interaction preincubated for 30 mins followed by biotinylated YAP addition and measured after 60 mins by TR-FRET assay; parameters: species or system Homo sapiens
OVCAR-8 [21] = assay: Antiproliferative activity against human OVCAR-8 cells by CellTiter-Glo luminescent cell viability assay; format: functional, cell-based
[22] = Antiproliferative activity against human VMRC-LCD cells by CellTiter-Glo luminescent cell viability assay; format: functional, cell-based
[23] = Antiproliferative activity against human HCC1576 cells assessed as minimum efficacy by CellTiter-Glo luminescent cell viability assay; format: functional
[24] = Antiproliferative activity against human HCC1576 cells by CellTiter-Glo luminescent cell viability assay; format: functional, cell-based
OVCAR-8 [25] = assay: Antiproliferative activity against human OVCAR-8 cells assessed as minimum efficacy by CellTiter-Glo luminescent cell viability assay; format: functional
C6 = assay: Antiproliferative activity against rat C6 cells incubated for 48 hrs by CCK8 assay; format: functional, cell-based; conditions: C6, 48 h
U-251 [26] = assay: Antiproliferative activity against human U251 cells incubated for 48 hrs by CCK8 assay; format: functional, cell-based; conditions: U-251, 48 h
HuCCT-1 = assay: Antiproliferative activity against human HuCCT-1 cells incubated for 24 hrs by WST-1 assay; format: functional, cell-based; conditions: HuCCT-1, 24 h
[27] = Antiproliferative activity against mouse GL261 cells incubated for 48 hrs by CCK8 assay; format: functional, cell-based; conditions: GL261, 48 h
[28] = Antiproliferative activity against […] cells incubated for 48 hrs by CCK8 assay; format: functional, cell-based; conditions: U373 MG
LN-229 = assay: Antiproliferative activity against LN-229 cells incubated for 48 hrs by CCK8 assay; format: functional, cell-based; conditions: Homo sapiens, LN-229, 48 h
GBM = assay: Antiproliferative activity against human GBM cells incubated for 48 hrs by CCK8 assay; format: functional, cell-based
U-87 MG = assay: Antiproliferative activity against human U87 cells incubated for 48 hrs by CCK8 assay; format: functional, cell-based, U-87MG ATCC
U-251 [29] = assay: Antiproliferative activity against human U-251 cells incubated for 48 hrs by CCK8 assay; format: functional, cell-based; conditions: U-251, 48 h
MDA-MB-453 = assay: Antiproliferative activity against human MDA-MB-453 cells incubated for 96 hrs by MTT assay; format: functional, cell-based; conditions: MDA-MB-453, 96 h
MCF7 = assay: Antiproliferative activity against human MCF7 cells incubated for 48 hrs by CCK8 assay; format: functional, cell-based; conditions: MCF7, 48 h
A-375 = assay: Antiproliferative activity against human A-375 cells incubated for 72 hrs by alamar blue staining based assay; format: functional, cell-based; conditions: A-375, 72 h
C8161 = assay: Antiproliferative activity against human C8161 cells incubated for 72 hrs by alamar blue staining based assay; format: functional, cell-based; conditions: C8161, 72 h
[30] = Inhibition of cell invasion in human colorectal cancer cells; format: functional

SMILES: O=C1C=C(Nc2ccc(O)cc2)C(=O)c2ccccc21
IC50 (HT-29): 2.68 µM | IC50 [1]: 19.8 µM | IC50 (HCT-116): 4.17 µM | IC50 [2]: 5.35 µM | IC50 (A2780): 3.8 µM

SMILES: CC(C)n1c(/C=C/[C@H](O)C[C@H](O)CC(=O)O)c(-c2ccc(F)cc2)c2ccccc21
EC50 [3]: 0.95 µM | IC50 [4]: < 10 µM | IC50 [5]: < 10 µM | EC50 [6]: 9.95 µM | IC50 (MDA-MB-231): < 10 µM

SMILES: COc1ccc2c(c1)/C(=N/NC(=O)c1nnn(-c3ccccc3N)c1-c1ccc(Cl)c(Cl)c1)C(=O)N2
IC50 [7]: 1.7 µM

SMILES: Nc1nonc1-n1nnc(C(=O)N/N=C2\C(=O)Nc3ccccc32)c1-c1ccc(Cl)c(Cl)c1
IC50 [7]: 6.5 µM

SMILES: CC(NC(=O)c1cc2nc(N(C)C)n(-c3ccc(Br)cc3)c2s1)c1ccccn1 (configuration not stated)
IC50 [8]: 0.391 µM | IC50 (NCI-H2052): 2.03 µM

SMILES: N#C[C@@H]1CCN(C(=O)c2cnn3c(=O)cc(-c4ccc(C5CCCCC5)cc4)[nH]c23)C1
IC50 [9]: 0.04 µM | IC50 [10]: 0.05 µM | IC50 [11]: 0.01 µM | IC50 [12]: 0.03 µM | IC50 [13]: 0.08 µM | IC50 [14]: 0.03 µM | IC50 [15]: 0.04 µM | IC50 [16]: 0.21 µM | IC50 [17]: 0.05 µM | IC50 [18]: 0.05 µM | IC50 [19]: 0.02 µM | IC50 [20]: 0.01 µM

SMILES: O=c1ccc2ccc3occc3c2o1 [ANGELICIN]
IC50 (C6): 200 µM | IC50 (U-251 [26]): 200 µM

SMILES: CC(C)c1c(C(=O)Nc2ccccc2)c(-c2ccccc2)c(-c2ccc(F)cc2)n1CC[C@@H](O)C[C@@H](O)CC(=O)O [ATORVASTATIN]
EC50 [3]: 7 µM | IC50 (HuCCT-1): < 50 µM | EC50 [6]: 23.5 µM

SMILES: CC(C)[C@]12O[C@H]1[C@@H]1O[C@@]13[C@@]1(C)CCC4=C(COC4=O)[C@@H]1C[C@@H]1O[C@@]13C2=O [TRIPTONIDE]
IC50 (A-375): 0.0162 µM | IC50 (C8161): 0.00556 µM

SMILES: N#Cc1ccc2[nH]cc(CCCCN3CCN(c4ccc5oc(C(N)=O)cc5c4)CC3)c2c1 [VILAZODONE]
inhibition (INH) [30]: 36%

The next lines start with results.

IC50 [8]: 0.458 µM | IC50 (NCI-H2052): > 3 µM
SMILES: COC(=O)c1cc(S(N)(=O)=O)ccc1NC1CCCCC1

IC50 [9]: 1.3 µM | IC50 [10]: 1.3 µM | IC50 [11]: 3 µM | IC50 [12]: > 5 µM | IC50 [13]: 20 µM | IC50 [14]: 1.1 µM | IC50 [15]: 0.7 µM | IC50 [16]: > 50 µM | IC50 [17]: 1.4 µM | IC50 [18]: > 50 µM | IC50 [19]: 1.6 µM | IC50 [20]: 2 µM
SMILES: CCOC(=O)c1cnn2c(=O)cc(-c3ccc(C(F)(F)F)cc3)[nH]c12

EC50 (OVCAR-8 [21]): 0.2 µM | IC50 [9]: 0.06 µM | IC50 [10]: 0.04 µM | IC50 [11]: 0.01 µM | IC50 [12]: 0.04 µM | IC50 [13]: 0.03 µM | IC50 [14]: 0.05 µM | IC50 [15]: 0.04 µM | IC50 [16]: 0.05 µM | IC50 [17]: 0.11 µM | IC50 [18]: > 0.02 µM | IC50 [19]: 0.02 µM | IC50 [20]: 0.01 µM
SMILES: O=C(c1c(-c2cnccn2)nn2c(=O)cc(-c3ccc(C4CCCCC4)cc3)[nH]c12)N1CC(CF)C1
EC50 [22]: > 50 µM | Emin [23]: 67% | EC50 [24]: 0.19 µM | Emin (OVCAR-8 [25]): 84%

IC50 (MDA-MB-231): < 10 µM
SMILES: Cc1nc(Nc2ncc(C(=O)Nc3c(C)cccc3Cl)s2)cc(N2CCN(CCO)CC2)n1 [DASATINIB ANHYDROUS]
IC50 [5]: < 10 µM

IC50 (U-87 MG): 13.3 µM | IC50 (U-251 [29]): 24 µM
SMILES: CN(C)CCCN1c2ccccc2CCc2ccccc21 [IMIPRAMINE]
IC50 [27]: 43.8 µM | IC50 [28]: 346 µM | IC50 (LN-229): 153 µM | IC50 (GBM): 22.1 µM

IC50 (MDA-MB-453): ≤ 10 µM | IC50 (MDA-MB-231): ≤ 10 µM
SMILES: Cc1ccc(Nc2nccc(N(C)c3ccc4c(C)n(C)nc4c3)n2)cc1S(N)(=O)=O [PAZOPANIB]
IC50 [5]: ≤ 10 µM

IC50 (MCF7): > 10 µM
SMILES: CCC(C)(C)C(=O)O[C@H]1C[C@@H](C)C=C2C=C[C@H](C)[C@H](CC[C@@H]3C[C@@H](O)CC(=O)O3)[C@H]21 [SIMVASTATIN]
